Where two headings read alike, the source gives them in different places.
Assays:
[1] = target: unlabeled double-stranded DNA substrate; experiment: ThO dye-displacement assay (DNA binding); conditions: for IC50: 50 nM DNA, 250 nM ThO; for ThO displacement (in words): LOPAC dose-response profiling
[2] = test system: HeLa cells; experiment: AP site measurement in chromosomal DNA; type: cell-based, human; conditions: for AP site damage, inhibitor alone: 5 µM inhibitor alone, relative to control cells; for AP site damage, inhibitor plus MMS: 5 µM inhibitor plus MMS
Description: HeLa cells were treated as above, except only at 5 µM inhibitor where indicated. Following exposure, chromosomal DNA was isolated and steady-state AP site levels were measured using the DNA Damage Quantification Kit from Dojindo Molecular Technologies, Inc. (Gaithersburg, MD) as previously described.

[3] = target: T1, E. coli EndoIV (Escherichia coli, UniProt P0A6C1); experiment: E. coli Endonuclease IV (EndoIV) profiling assay; type: biochemical
T1 construct: made in house
Description: EndoIV enzyme and substrate (same as that used with APE1) optimization tests were initially performed at a 40 µL final volume in a 384-well format. Reaction concentrations of 2 nM EndoIV and 50 nM DNA substrate were selected for subsequent experiments. For running the assay in 1536-well format, the same protocol as described for APE1 above was followed.

[4] = target: T2, APE1 (Homo sapiens, UniProt P27695); experiment: qHTS fluorogenic AP site incision assay (TAMRA/BHQ-2 red substrate, 1536-well); type: biochemical
T2 construct: made in house
Description: Recombinant human APE1 and E. coli EndoIV were purified as previously described. Deoxyoligonucleotides containing a tetrahydrofuran (THF) AP site analog, carboxytetramethyl rhodamine (TAMRA), or Black Hole Quencher-2 (BHQ-2), as appropriate (see Figure 1), were purchased from Biosearch Technologies, Inc., (Novato, CA). To create double-stranded DNA substrates, equal volumes of 200 µM solutions of the respective strands in reaction buffer were mixed and incubated at 95°C for 5 min. The annealing mixture was allowed to cool gradually to room temperature. Annealing and assay experiments were performed in the following buffer: 50 mM Tris pH 7.5, 25 mM NaCl, 2 mM MgCl2, 1 mM DTT, 0.01% Tween-20.
Initial optimizations were carried out in 384-well format at a 40 µL total reaction volume. Briefly, 30 µL of APE1 were pipetted into the plate and incubated at room temperature for 10 min; subsequently, 10 µL of substrate were added to start the reaction. The final assay concentrations of the enzyme and substrate were 0.75 nM and 50 nM, respectively. Kinetic fluorescence data were collected on a ViewLux high-throughput CCD imager (Perkin Elmer, Waltham, MA) equipped with standard FITC (excitation filter 480 nm and emission filter 530 nm) or BODIPY (excitation filter 525 nm and emission filter 598 nm) optics.
Three µl of reagents (buffer in columns 3 and 4 as negative control and APE1 in columns 1, 2, 5–48) were dispensed into a 1536-well plate. Compounds (DMSO solutions) and control (DMSO only) (23 nL) were transferred via Kalypsys pintool equipped with 1536-pin array. The plate was incubated for 15 min at room temperature, and then 1 µL of substrate (50 nM final concentration) was added to start the reaction. Library plates were screened from the lowest to highest concentration.
Screening data were corrected and normalized, and concentration–effect relationships were derived by using in-house developed, publicly available algorithms (http://www.ncgc.nih.gov/pub/openhts/curvefit/). Percent activity was computed after normalization against the uninhibited, or neutral, control (64 wells, entire columns 1 and 2) and the no-enzyme, or 100% inhibited, control (64 wells, entire columns 3 and 4), respectively. A four parameter Hill equation was fitted to the concentration-response data by minimizing the residual error between the modeled and observed responses.

[5] = target: T2, APE1; experiment: Radiotracer (32P, gel-based) incision assay; type: biochemical; conditions: for Gel: inhibition detected or not in radiotracer incision assay: APE1, 32P-labeled THF substrate
[6] = test system: AP site cleavage activity of HeLa whole cell extract; experiment: Whole cell extract AP endonuclease activity assay (HeLa); type: biochemical, human; conditions: inhibitor at 100 µM
Description: (§1) The radiotracer assay was performed essentially as described. In brief, prioritized candidate inhibitor compounds from the qHTS assay were incubated at various concentrations (100 µM data shown) with APE1 (100 pg) at room temperature for 15 min in 25 mM Tris pH 7.5, 25 mM NaCl, 1 mM MgCl2, 1 mM DTT and 0.01% Tween-20. At that time, 0.5 pmol ^32P-radiolabeled THF-containing 34 mer double-stranded DNA substrate was added. Incision reactions were then carried out immediately at 37°C for 10 min in a final volume of 10 µL. After the addition of an equal volume of stop buffer (0.05% bromophenol blue and xylene cynol, 20 mM EDTA, 95% formamide), the radiolabeled substrate and product were separated on a standard polyacrylamide denaturing gel and quantified by phosphorimager analysis.
(§2) HEK 293T or HeLa cells – maintained in DMEM with 10% fetal bovine serum and 1% Penicillin-Streptomycin – were harvested, washed with 1× PBS, re-suspended in cold 222 mM KCl, incubated on ice for 30 min, and clarified by centrifugation at 12,000×g for 15 min at 4°C [23]. The supernatant (whole cell extract) was retained, the protein concentration determined using the Bio-Rad Bradford reagent, and aliquots were stored at −80°C. AP endonuclease activity assays were performed with or without candidate inhibitor compounds as described above, except 60 ng HEK 293T or 80 ng of HeLa whole cell extract was used.

[7] = test system: HeLa cells; experiment: Cell-based colony survival assay with MMS; set-up: species or system human; conditions: HeLa colony formation, 0.25 mM MMS, 1 or 5 µM inhibitor
Description: To measure colony survival, HeLa cells were plated in 6-well plates 12–20 hr prior to treatment. Cells were treated as follows: (i) exposed only to control medium, (ii) exposed to 0.25 mM MMS alone for 1 hr, (iii) exposed to 1 or 5 µM of the indicated inhibitor compound alone for 4 hr, or (iii) exposed to inhibitor compound alone for 3 hr and then with MMS for an additional 1 hr at 37°C. Following treatment, cells were washed once with 1× PBS and incubated in regular maintenance media (DMEM, 10% FBS) at 37°C for 10–15 days. Colonies formed were fixed in methanol, stained in methylene blue (Sigma), and counted to determine percent survival relative to the untreated controls.

[8] = test system: AP site cleavage activity of HEK 293T whole cell extract; experiment: Whole cell extract AP endonuclease activity assay (HEK 293T); type: biochemical, human; conditions: inhibitor at 100 µM
Description: as §1, §2

[9] = set-up: method as in PMID 18042731; conditions: cited from earlier work
[10] = 2 nM EndoIV, 50 nM substrate, read-out: Endo IV IC50 (E. coli EndoIV profiling)
[11] = 50 nM substrate, 0.75 nM APE1, read-out: qHTS IC50 (primary screen, APE1)
[12] = range of inhibitor concentrations, data not shown, read-out: approximate IC50 in radiotracer assay

T2 sequence (P27695 whole entry): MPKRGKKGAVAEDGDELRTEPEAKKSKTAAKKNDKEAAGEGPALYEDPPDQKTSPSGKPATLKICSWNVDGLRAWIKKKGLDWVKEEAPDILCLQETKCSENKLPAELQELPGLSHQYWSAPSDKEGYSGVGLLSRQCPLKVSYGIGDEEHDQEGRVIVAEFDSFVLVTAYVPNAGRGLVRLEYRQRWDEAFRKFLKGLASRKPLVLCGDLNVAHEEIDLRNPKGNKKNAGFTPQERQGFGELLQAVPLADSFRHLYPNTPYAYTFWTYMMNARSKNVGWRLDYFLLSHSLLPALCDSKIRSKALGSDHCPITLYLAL

Compound | IC50 [1] | activity against EndoIV compared with APE1 (in words) [3] | Gel: inhibition detected or not in radiotracer incision assay [5] | inhibition of total AP site cleavage activity [6] | inhibition of total AP site cleavage activity [8] | IC50 [3, 10] | IC50 [4, 11] | IC50 [5, 12] | ThO displacement (in words) [1] | also measured
NC(Cc1cc(O)c(O)cc1O)C(=O)O (racemic) [6-hydroxy-DL DOPA, 6-hydroxy-DL-DOPA] | 7900 nM | completely inactive or weakly active | Yes | complete inhibition | complete inhibition | – | – | – | – | AP site damage, inhibitor alone [2]: increased AP site damage relative to the control cells; AP site damage, inhibitor plus MMS [2]: potentiated the genotoxic potential of MMS; IC50 [3]: 10000 nM; IC50 [4]: 110 nM; IC50 [5]: < 500 nM; percent cell killing, MMS plus inhibitor relative to alkylator or inhibitor alone [7]: greater than additive increase
O=C(O)c1cc[c]([Sb](=[O])([OH])[OH])cc1[N+](=O)[O-] [NSC-13755] | – | – | – | complete inhibition | complete inhibition | – | – | – | – | outcome in cell-based experiments [9]: fail in cell-based experiments
Cc1nc(N=Nc2cc(S(=O)(=O)O)c3cc([N+](=O)[O-])cc(S(=O)(=O)O)c3c2)c(COP(=O)(O)O)c(C=O)c1O [PPNDS tetrasodium] | 10000 nM | – | No | – | – | 16000 nM | 2800 nM | > 50000 nM | – | –
Nc1c(S(=O)(=O)O)cc(Nc2ccc(Nc3nc(Cl)nc(Nc4cccc(S(=O)(=O)O)c4)n3)c(S(=O)(=O)O)c2)c2c1C(=O)c1ccccc1C2=O [Reactive Blue 2] | 8900 nM | completely inactive or weakly active | Yes | ≥ 80% | ≥ 80% | 10000 nM | 250 nM | < 500 nM | – | AP site damage, inhibitor alone [2]: increased AP site damage relative to the control cells; AP site damage, inhibitor plus MMS [2]: potentiated the genotoxic potential of MMS; percent cell killing, MMS plus inhibitor relative to alkylator or inhibitor alone [7]: greater than additive increase
N#C/C(=C\c1ccc(O)c(O)c1)C(=O)c1ccc(O)c(O)c1 [Tyrphostin AG 538] | 20000 nM | similarly potent against each endonuclease | Yes | mild inhibition | mild inhibition | 280 nM | 280 nM | 500 to 2000 nM | weak or no displacement activity | –
O=C(O)C1=CC(=C(c2ccc(O)c(C(=O)O)c2)c2ccc(O)c(C(=O)O)c2)C=CC1=O [aurintricarboxylic acid] | 1300 nM | completely inactive or weakly active | Yes | – | – | 25000 nM | 55 nM | – | – | APE1 inhibition in fluorogenic assay (in words) [4]: low nanomolar range
CO/N=C(\C(=O)N[C@@H]1C(=O)N2C(C(=O)O)=C(CSc3nc(=O)c(=O)[nH]n3C)CS[C@H]12)c1csc(N)n1 [ceftriaxone sodium] | > 57000 nM | – | No | – | – | 11000 nM | 2200 nM | > 50000 nM | – | –
CC(=O)OCC1=C(C(=O)O)N2C(=O)[C@@H](NC(=O)CSc3ccncc3)[C@H]2SC1 [cephapirin sodium] | > 57000 nM | similarly potent against each endonuclease | No | – | – | 16000 nM | 8900 nM | > 50000 nM | – | –
Cn1cc(NC(=O)c2cc(NC(=O)c3cc(NC=O)cn3C)cn2C)cc1C(=O)NCCC(=N)N [distamycin] | – | – | – | – | – | – | – | – | strong displacement activity | –
COc1cccc2c1C(=O)c1c(O)c3c(c(O)c1C2=O)C[C@@](O)(C(=O)CO)C[C@@H]3O[C@H]1C[C@H](N)[C@H](O)[C@H](C)O1 [doxorubicin] | – | – | – | – | – | – | – | – | strong ThO displacement profiles | –
CC(=O)[C@]1(O)Cc2c(O)c3c(c(O)c2[C@@H](O[C@H]2C[C@H](N)[C@H](O)[C@H](C)O2)C1)C(=O)c1ccccc1C3=O [idarubicin] | – | – | – | – | – | – | – | – | strong ThO displacement profiles | –
CN(N=O)c1ccc(O)c(O)c1 [methyl 3,4-dephostatin, methyl-3,4-dephostatin] | 14000 nM | completely inactive or weakly active | Yes | no effect | no effect | 8900 nM | 500 nM | 500 to 2000 nM | – | –
O=C1c2c(O)ccc(O)c2C(=O)c2c(NCCNCCO)ccc(NCCNCCO)c21 [mitoxantrone] | 350 nM | similarly potent against each endonuclease | Yes | – | – | 2000 nM | 2000 nM | < 500 nM | positive | –
C=C/C(C)=C/[C@@]1(C)SC(=O)C(C)=C1O [thiolactomycin] | > 57000 nM | completely inactive or weakly active | Yes | no effect | no effect | 20000 nM | 1000 nM | 500 to 2000 nM | weak or no displacement activity | ThO displacement (in words) ([1]; listed as Thiolactomycin): does not affect ThO displacement
